What was measured:
pigweed = assay: Test B pre/postemergence pigweed; format: in vivo, Amaranthus retroflexus; conditions: for Redroot pigweed plant response rating: Postemergence; for Plant response rating, Redroot pigweed: Preemergence
How it was run: (§1)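 Test chemicals in a non-phytotoxic solvent mixture with surfactant were sprayed preemergence onto planted seeds and postemergence onto plants 2 to 18 cm tall (1- to 4-leaf stage). After twelve to sixteen days in a greenhouse, injury was visually rated against untreated controls from 0 (no effect) to 10 (complete control).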

sugar beet = assay: Test B pre/postemergence sugar beet; format: in vivo, Beta vulgaris; conditions: for Sugarbeets plant response rating: Postemergence; for Plant response rating, Sugarbeets: Preemergence
How it was run: as §1

blackgrass = assay: Test B pre/postemergence blackgrass; format: in vivo, Alopecurus myosuroides; conditions: for Blackgrass plant response rating: Postemergence; for Plant response rating, Blackgrass: Preemergence
How it was run: as §1

rape = assay: Test B pre/postemergence rape; format: in vivo, Brassica napus; conditions: for Rape plant response rating: Postemergence; for Plant response rating, Rape: Preemergence
How it was run: as §1

smallflower flatsedge = assay: Test B flood test smallflower flatsedge; format: in vivo, Cyperus difformis
How it was run: (§2)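 Each value is a visual injury score relative to controls, with 10 meaning complete control and 0 no effect. Evaluation took place twelve to sixteen days after the 2-leaf-stage plants were treated and kept in the greenhouse.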

crabgrass = assay: Test B pre/postemergence crabgrass; format: in vivo, Digitaria sanguinalis; conditions: for Crabgrass plant response rating: Postemergence; for Plant response rating, Crabgrass: Preemergence
How it was run: as §1

rice = assay: Test B flood test rice; format: in vivo, Oryza sativa
How it was run: as §2

velvetleaf = assay: Test B pre/postemergence velvetleaf; format: in vivo, Abutilon theophrasti; conditions: for Velvetleaf plant response rating: Postemergence; for Plant response rating, Velvetleaf: Preemergence
How it was run: as §1

bamyardgrass = assay: Test B flood test barnyardgrass; format: in vivo, Echinochloa crus-galli
How it was run: as §2

wild oat = assay: Test B pre/postemergence wild oat; format: in vivo, Avena fatua; conditions: for Wild oats plant response rating: Postemergence; for Plant response rating, Wild oats: Preemergence
How it was run: as §1

morningglory = assay: Test B pre/postemergence morningglory; format: in vivo, Ipomoea hederacea; conditions: for Morningglory plant response rating: Postemergence; for Plant response rating, Morningglory: Preemergence
How it was run: as §1

wheat = assay: Test B pre/postemergence wheat; format: in vivo, Triticum aestivum; conditions: for Wheat plant response rating: Postemergence; for Plant response rating, Wheat: Preemergence
How it was run: as §1

purple nutsedge = assay: Test B pre/postemergence purple nutsedge; format: in vivo, Cyperus rotundus; conditions: for Nutsedge plant response rating: Postemergence; for Plant response rating, Nutsedge: Preemergence
How it was run: as §1

cocklebur = assay: Test B pre/postemergence cocklebur; format: in vivo, Xanthium strumarium; conditions: for Cocklebur plant response rating: Postemergence; for Plant response rating, Cocklebur: Preemergence
How it was run: as §1

surinam grass = assay: Test B pre/postemergence surinam grass; format: in vivo, Brachiaria decumbens; conditions: for B. signalgrass plant response rating: Postemergence; for Plant response rating, B. signalgrass: Preemergence
How it was run: as §1

bedstraw = assay: Test B pre/postemergence bedstraw; format: in vivo, Galium aparine; conditions: Postemergence, Rate 1000 g/ha; scale 0 to 10 (0 no effect, 10 complete control)
How it was run: as §1

corn = assay: Test B pre/postemergence corn; format: in vivo, Zea mays; conditions: for Corn plant response rating: Postemergence; for Plant response rating, Corn: Preemergence
How it was run: as §1

giant foxtail = assay: Test B pre/postemergence giant foxtail; format: in vivo, Setaria faberii; conditions: for Giant foxtail plant response rating: Postemergence; for Plant response rating, Giant foxtail: Preemergence
How it was run: as §1

soybean = assay: Test B pre/postemergence soybean; format: in vivo, Glycine max; conditions: for Soybean plant response rating: Postemergence; for Plant response rating, Soybean: Preemergence
How it was run: as §1

duck salad = assay: Test B flood test duck salad; format: in vivo, Heteranthera limosa
How it was run: as §2

[1] = Rate 125 g/ha, scale of 0 to 10 where 0 is no effect and 10 is complete control
[2] = Rate 1000 g/ha, scale 0 to 10 (0 no effect, 10 complete control)
[3] = Rate 250 g/ha, scale 0 to 10, 0 is no effect, 10 is complete control
[4] = Rate 500 g/ha, scale 0 to 10, 0 is no effect, 10 is complete control
[5] = Rate 500 g/ha, scale of 0 to 10 where 0 is no effect and 10 is complete control
[6] = Rate 250 g/ha, scale 0 to 10 (0 no effect, 10 complete control)
[7] = Pre-emergence, Rate 1000 g/ha, scale 0 to 10 (0 no effect, 10 complete control)
[8] = Rate 125 g/ha, under heading Pre-emergence, flood test species, visual evaluation after twelve to sixteen days
[9] = Rate 250 g/ha, Pre-emergence (flood test species), scale 0 to 10, 0 is no effect, 10 is complete control
[10] = Rate 500 g/ha, Pre-emergence section of Table B, 0 to 10 scale (0 no effect, 10 complete control)

In the case of `COC(=O)C(c1ccccc1)n1c(=O)on(C(=O)N(c2ccc(F)cc2)C(C)C)c1=O` (centres unmarked) [Compound 677], the “Redroot pigweed plant response rating” value (pigweed; [1]) is reported as 2, the “Redroot pigweed plant response rating” value (pigweed; [2]) is reported as 4 and the “Plant response rating, Redroot pigweed” value (pigweed; [1]) is reported as 4. The “Redroot pigweed plant response rating” value (pigweed; [3]) was 3, the “Redroot pigweed plant response rating” value (pigweed; [4]) was 3 and the “Plant response rating, Redroot pigweed” value (pigweed; [2]) was 8. The “Sugarbeets plant response rating” value (sugar beet; [1]) was 0, the “Sugarbeets plant response rating” value (sugar beet; [2]) was 1 and the “Plant response rating, Sugarbeets” value (sugar beet; [1]) was 0. For the same compound, the “Plant response rating, Sugarbeets” value (sugar beet; [5]) was 0, the “Sugarbeets plant response rating” value (sugar beet; [3]) was 0 and the “Sugarbeets plant response rating” value (sugar beet; [4]) was 1. For the same compound, the “Plant response rating, Sugarbeets” value (sugar beet; [2]) was 7, the “Blackgrass plant response rating” value (blackgrass; [1]) was 0 and the “Blackgrass plant response rating” value (blackgrass; [2]) was 4. For the same compound, the “Plant response rating, Blackgrass” value (blackgrass; [1]) was 0, the “Plant response rating, Blackgrass” value (blackgrass; [6]) was 0 and the “Plant response rating, Blackgrass” value (blackgrass; [5]) was 0. The “Blackgrass plant response rating” value (blackgrass; [3]) was 0, the “Blackgrass plant response rating” value (blackgrass; [4]) was 1 and the “Plant response rating, Blackgrass” value (blackgrass; [2]) was 4. For the same compound, the “Rape plant response rating” value (rape; [1]) was 0, the “Rape plant response rating” value (rape; [2]) was 0 and the “Plant response rating, Rape” value (rape; [1]) was 0. The “Plant response rating, Rape” value (rape; [5]) was 0, the “Rape plant response rating” value (rape; [3]) was 0 and the “Rape plant response rating” value (rape; [4]) was 0. For the same compound, the “Plant response rating, Rape” value (rape; [2]) was 3, the “S. Flatsedge plant response rating” value (smallflower flatsedge; [7]) was 0 and the “S. Flatsedge plant response rating (0 to 10 scale, 0 is no effect, 10 is complete control)” value (smallflower flatsedge; [8]) was 0. The “S. Flatsedge plant response rating” value (smallflower flatsedge; [9]) was 0, the “S. Flatsedge plant response rating” value (smallflower flatsedge; [10]) was 0 and the “Crabgrass plant response rating” value (crabgrass; [1]) was 0. The “Crabgrass plant response rating” value (crabgrass; [2]) was 6, the “Plant response rating, Crabgrass” value (crabgrass; [1]) was 3 and the “Plant response rating, Crabgrass” value (crabgrass; [6]) was 6. For the same compound, the “Plant response rating, Crabgrass” value (crabgrass; [5]) was 7, the “Crabgrass plant response rating” value (crabgrass; [3]) was 0 and the “Crabgrass plant response rating” value (crabgrass; [4]) was 4. The “Plant response rating, Crabgrass” value (crabgrass; [2]) was 9, the “Rice plant response rating” value (rice; [7]) was 0 and the “Rice plant response rating (0 to 10 scale, 0 is no effect, 10 is complete control)” value (rice; [8]) was 0. The “Rice plant response rating” value (rice; [9]) was 0, the “Rice plant response rating” value (rice; [10]) was 0 and the “Velvetleaf plant response rating” value (velvetleaf; [1]) was 0. The “Velvetleaf plant response rating” value (velvetleaf; [2]) was 3, the “Plant response rating, Velvetleaf” value (velvetleaf; [1]) was 0 and the “Plant response rating, Velvetleaf” value (velvetleaf; [5]) was 0. For the same compound, the “Velvetleaf plant response rating” value (velvetleaf; [3]) was 0, the “Velvetleaf plant response rating” value (velvetleaf; [4]) was 3 and the “Plant response rating, Velvetleaf” value (velvetleaf; [2]) was 0. The “Barnyardgrass plant response rating” value (bamyardgrass; [7]) was 0, the “Barnyardgrass plant response rating (0 to 10 scale, 0 is no effect, 10 is complete control)” value (bamyardgrass; [8]) was 0 and the “Barnyardgrass plant response rating” value (bamyardgrass; [9]) was 0. For the same compound, the “Barnyardgrass plant response rating” value (bamyardgrass; [10]) was 0, the “Wild oats plant response rating” value (wild oat; [1]) was 0 and the “Wild oats plant response rating” value (wild oat; [2]) was 0. The “Plant response rating, Wild oats” value (wild oat; [1]) was 0, the “Plant response rating, Wild oats” value (wild oat; [5]) was 0 and the “Wild oats plant response rating” value (wild oat; [3]) was 0. The “Wild oats plant response rating” value (wild oat; [4]) was 0, the “Plant response rating, Wild oats” value (wild oat; [2]) was 2 and the “Morningglory plant response rating” value (morningglory; [1]) was 2. For the same compound, the “Plant response rating, Morningglory” value (morningglory; [1]) was 0, the “Plant response rating, Morningglory” value (morningglory; [5]) was 0 and the “Morningglory plant response rating” value (morningglory; [3]) was 4. The “Morningglory plant response rating” value (morningglory; [4]) was 7, the “Plant response rating, Morningglory” value (morningglory; [2]) was 0 and the “Wheat plant response rating” value (wheat; [1]) was 0. The “Wheat plant response rating” value (wheat; [2]) was 0, the “Plant response rating, Wheat” value (wheat; [1]) was 0 and the “Plant response rating, Wheat” value (wheat; [5]) was 0. The “Wheat plant response rating” value (wheat; [3]) was 0, the “Wheat plant response rating” value (wheat; [4]) was 0 and the “Plant response rating, Wheat” value (wheat; [2]) was 0. The “Nutsedge plant response rating” value (purple nutsedge; [1]) was 0, the “Nutsedge plant response rating” value (purple nutsedge; [2]) was 0 and the “Plant response rating, Nutsedge” value (purple nutsedge; [1]) was 0. For the same compound, the “Plant response rating, Nutsedge” value (purple nutsedge; [5]) was 0, the “Nutsedge plant response rating” value (purple nutsedge; [3]) was 0 and the “Nutsedge plant response rating” value (purple nutsedge; [4]) was 0. The “Plant response rating, Nutsedge” value (purple nutsedge; [2]) was 0, the “Cocklebur plant response rating” value (cocklebur; [1]) was 0 and the “Cocklebur plant response rating” value (cocklebur; [2]) was 1. For the same compound, the “Plant response rating, Cocklebur” value (cocklebur; [1]) was 0, the “Plant response rating, Cocklebur” value (cocklebur; [6]) was 0 and the “Plant response rating, Cocklebur” value (cocklebur; [5]) was 0. The “Cocklebur plant response rating” value (cocklebur; [3]) was 0, the “Cocklebur plant response rating” value (cocklebur; [4]) was 1 and the “Plant response rating, Cocklebur” value (cocklebur; [2]) was 0. The “B. signalgrass plant response rating” value (surinam grass; [1]) was 0, the “B. signalgrass plant response rating” value (surinam grass; [2]) was 1 and the “Plant response rating, B. signalgrass” value (surinam grass; [1]) was 0. The “Plant response rating, B. signalgrass” value (surinam grass; [6]) was 3, the “Plant response rating, B. signalgrass” value (surinam grass; [5]) was 5 and the “B. signalgrass plant response rating” value (surinam grass; [3]) was 0. For the same compound, the “B. signalgrass plant response rating” value (surinam grass; [4]) was 0, the “Plant response rating, B. signalgrass” value (surinam grass; [2]) was 9 and the “Bedstraw plant response rating” value (bedstraw) was 0. For the same compound, the “Corn plant response rating” value (corn; [1]) was 0, the “Corn plant response rating” value (corn; [2]) was 0 and the “Plant response rating, Corn” value (corn; [1]) was 0. The “Plant response rating, Corn” value (corn; [6]) was 0, the “Plant response rating, Corn” value (corn; [5]) was 0 and the “Corn plant response rating” value (corn; [3]) was 0. For the same compound, the “Corn plant response rating” value (corn; [4]) was 0, the “Plant response rating, Corn” value (corn; [2]) was 0 and the “Giant foxtail plant response rating” value (giant foxtail; [1]) was 0. The “Giant foxtail plant response rating” value (giant foxtail; [2]) was 5, the “Plant response rating, Giant foxtail” value (giant foxtail; [1]) was 5 and the “Plant response rating, Giant foxtail” value (giant foxtail; [5]) was 10. For the same compound, the “Giant foxtail plant response rating” value (giant foxtail; [3]) was 2, the “Giant foxtail plant response rating” value (giant foxtail; [4]) was 4 and the “Plant response rating, Giant foxtail” value (giant foxtail; [2]) was 10. The “Soybean plant response rating” value (soybean; [1]) was 0, the “Soybean plant response rating” value (soybean; [2]) was 7 and the “Plant response rating, Soybean” value (soybean; [1]) was 0. For the same compound, the “Plant response rating, Soybean” value (soybean; [5]) was 0, the “Soybean plant response rating” value (soybean; [3]) was 1 and the “Soybean plant response rating” value (soybean; [4]) was 2. The “Plant response rating, Soybean” value (soybean; [2]) was 0, the “Ducksalad plant response rating” value (duck salad; [7]) was 0 and the “Ducksalad plant response rating (0 to 10 scale, 0 is no effect, 10 is complete control)” value (duck salad; [8]) was 0. For the same compound, the “Ducksalad plant response rating” value (duck salad; [9]) was 0 and the “Ducksalad plant response rating” value (duck salad; [10]) was 0.

Reference: US6737383B1, “Herbicidal oxadiazolidines” (priority 1999, dated 2004)
